Measurements as given in US20240366608A1, “PHARMACEUTICAL COMBINATIONS OF SOS1 INHIBITORS FOR TREATING AND/OR PREVENTING CANCER” (Lupin Limited, priority 2021, published 2024).

Experiments:
[1] = system: MIA PaCa-2 or SW1990 pancreatic cancer cells; assay: Colony formation assay, SOS1 inhibitor combined with targeted agents; assay type: cell-based, human; conditions: 7 days of drug treatment, crystal violet absorbance at 590 nm; combined with one or more of the agents listed
Procedure: Compound 1, 2, 3, 3a, 3b, 4, 4a, 4b, 5, 6, 6a, 6b and 7 were tested for inhibition of colony formation potential in combination with one or more of the following agents in MIA PaCa-2 or SW1990 pancreatic cancer cells: • EGFR inhibitor: Afatinib, KRAS-G12C inhibitor: AMG 510, KRAS-G12C inhibitor: MRTX849, KRAS-G12D inhibitor: MRTX1133, ERK1/2 inhibitor: LY3214996 and BVD-523, BRAF inhibitor: Encorafenib, pan-RAF inhibitor: LXH254, PRMT5 inhibitor: compound 24 of WO 2019116302, Type I PRMT inhibitor: GSK3368715, PI3K inhibitor: BYL719, FGFR inhibitor: Nintedanib, CDK4/6 inhibitor: Abemaciclib, and other chemotherapeutic agent: Gemcitabine.
Colony formation assay: MIA PaCa-2 cells or SW1990 cells were seeded at 500 cells per well or 1500 cells/well, respectively in 48 well tissue culture plate and cells were allowed to settle overnight (16 to 20 h). On the following day, cells were treated with various concentrations of targeted agents to generate IC50 with or without increasing concentrations of SOS1 inhibitor (as depicted in the figures), and the assay plates were incubated under normal cell culture conditions. After 7 days of drug treatment, media was removed from each well and plates were washed with PBS. Cell colonies were stained with crystal violet solution for 2-5 min. Plate was then washed carefully under tap water and air dried. For quantitation, 200 μL destaining solution containing 10% Glacial acetic acid was added to each well and stained colonies were allowed to solubilize for 20-30 min on plate shaker. After solubilization, absorbance of the extracted stain was recorded in BioTek Synergy Neo U plate reader at 590 nm. Absorbance values were directly proportional to colony growth.

MIA PaCa-2 xenograft = assay: In vivo efficacy, Compound 5 combined with Compound 24 of WO 2019116302, xenograft; set-up: species or system nude mice; conditions: single agent: Compound 5 50 mg/kg b.i.d.; Compound 24 of WO 2019116302 dose not given
Procedure: Compound 5 was tested in combination with Compound 24 of WO 2019116302 in vivo in MIA PaCa-2 xenograft model in nude mice.
20×10^6 MIA PaCa-2 cells were injected subcutaneously in the presence of PBS and Matrigel in 1:1 ratio in nude mice.

[2] = system: MIA PaCa-2 human pancreatic cancer xenograft; assay: In vivo efficacy, Compound 7 combined with LXH254, xenograft; set-up: species or system nude mice; conditions: single agent: Compound 7 5 mg/kg q.d.; LXH254 50 mg/kg b.i.d.
[3] = system: MIA PaCa-2 human pancreatic cancer xenograft; assay: In vivo efficacy, Compound 4b combined with Afatinib or Compound 24 of WO 2019116302, xenograft; set-up: species or system nude mice; conditions: single agent: Compound 4b 15 mg/kg b.i.d.; Afatinib 12.5 mg/kg q.d.; Compound 24 of WO 2019116302 1.0 mg/kg b.i.d.
[4] = system: MIA PaCa-2 human pancreatic cancer xenograft; assay: In vivo efficacy, Compound 1 or 4b combined with AMG 510, xenograft; set-up: species or system nude mice; conditions: single agent; for tumor growth inhibition: 30 mg/kg b.i.d.
[5] = system: MIA PaCa-2 human pancreatic cancer xenograft; assay: In vivo efficacy, Compound 7 combined with AMG 510, xenograft; set-up: species or system nude mice; conditions: single agent
Text: MIA PaCa-2 tumor fragments were implanted subcutaneously in the right flank region of nude mice. Tumor-bearing mice were randomized once the tumors reached an average volume of ˜155-164 mm^3 (tumor volume range 66-298 mm^3).

[6] = system: MIA PaCa-2 human pancreatic cancer xenograft; assay: In vivo efficacy, Compound 7 combined with Afatinib, Compound 24 of WO 2019116302 or Ulixertinib, xenograft; set-up: species or system nude mice; conditions: single agent, Compound 7 15 mg/kg b.i.d.

Cc1nc(N[C@H](C)c2cccc(C(F)(F)C(C)(O)CO)c2F)c2cc3c(cc2n1)C(C)(C)C(=O)N3C (stereo partly drawn) [Compound 3, 4-(((R)-1-(3-((R&S)-1,1-Difluoro-2,3-dihydroxy-2-methylpropyl)-2-fluorophenyl)ethyl)amino)-2,6,8,8-tetramethyl-6,8-dihydro-7H-pyrrolo[2,3-g]quinazolin-7-one]
potentiation of activity of combination agents leading to inhibition of colony forming activity [1]: significant potentiation

COC1(C)C(=O)N(C)c2cc3nc(C)nc(N[C@H](C)c4cccc(C(F)(F)C(C)(C)O)c4F)c3cc21 (mixture of isomers) [Compound 6, (R&S)-4-(((R)-1-(3-(1,1-difluoro-2-hydroxy-2-methylpropyl)-2-fluorophenyl)ethyl)amino)-6-methoxy-2,6,8-trimethyl-6,8-dihydro-7H-pyrrolo[3,2-g]quinazolin-7-one]
potentiation of activity of combination agents leading to inhibition of colony forming activity [1]: significant potentiation

CO[C@]1(C)C(=O)N(C)c2cc3c(N[C@H](C)c4cccc(C(F)(F)C(C)(C)O)c4F)nc(C)nc3cc21 (single isomer, unassigned) [Compound 4a]
potentiation of activity of combination agents leading to inhibition of colony forming activity [1]: significant potentiation

Cc1nc(N[C@H](C)c2cccc(C(F)(F)C(C)(O)CO)c2F)c2cc3c(cc2n1)C(C)(C)C(=O)N3C (single isomer, unassigned) [Compound 3a]
potentiation of activity of combination agents leading to inhibition of colony forming activity [1]: significant potentiation

Cc1nc(N[C@H](C)c2cc(N)cc(C(F)(F)F)c2)c2cc(-c3ccc(=O)n(C)c3)c3c(c2n1)CCC3 [Compound 5, (R)-5-(4-((1-(3-amino-5-(trifluoromethyl)phenyl)ethyl)amino)-2-methyl-8,9-dihydro-7H-cyclopenta[h]quinazolin-6-yl)-1-methylpyridin-2(1H)-one]
tumor growth inhibition (MIA PaCa-2 xenograft): 59% | potentiation of activity of combination agents leading to inhibition of colony forming activity [1]: significant potentiation

Cc1ccc(NC(=O)c2ccnc(C(F)(F)F)c2)cc1-c1cc(OCCO)nc(N2CCOCC2)c1 [LXH254, N-(3-(2-(2-hydroxyethoxy)-6-morpholinopyridin-4-yl)-4-methylphenyl)-2-(trifluoromethyl)isonicotinamide, reference compound]
inhibition in tumor growth [2]: 34.96%

CN(C)C/C=C/C(=O)Nc1cc2c(Nc3ccc(F)c(Cl)c3)ncnc2cc1O[C@H]1CCOC1 [Afatinib, (S,E)-N-(4-((3-chloro-4-fluorophenyl)amino)-7-((tetrahydrofuran-3-yl)oxy)quinazolin-6-yl)-4-(dimethylamino)but-2-enamide]
tumor growth inhibition [3]: 38%

COC1(C)C(=O)N(C)c2cc3c(N[C@H](C)c4cccc(C(F)(F)C(C)(C)O)c4F)nc(C)nc3cc21 (single isomer, unassigned) [Compound 4b]
tumor growth inhibition [3]: 47% | tumor growth inhibition [4]: 65.71±7.41% | potentiation of activity of combination agents leading to inhibition of colony forming activity [1]: significant potentiation

Nc1nc2cc(CCC3=C[C@@H](n4ccc5c(N)ncnc54)[C@H](O)[C@@H]3O)cc(F)c2cc1Cl [Compound 24 of WO 2019116302, (1S,2R,5R)-3-(2-(2-amino-3-chloro-5-fluoroquinolin-7-yl)ethyl)-5-(4-amino-7H-pyrrolo[2,3-d]pyrimidin-7-yl)cyclopent-3-ene-1,2-diol, reference compound]
tumor growth inhibition [3]: 52% | tumor growth inhibition (MIA PaCa-2 xenograft): 73%

COC1(C)C(=O)N(C)c2cc3c(N[C@H](C)c4cccc(C(F)(F)C(C)(C)O)c4F)nc(C)nc3cc21 (mixture of isomers) [Compound 4, (R&S)-4-(((R)-1-(3-(1,1-difluoro-2-hydroxy-2-methylpropyl)-2-fluorophenyl)ethyl)amino)-8-methoxy-2,6,8-trimethyl-6,8-dihydro-7H-pyrrolo[2,3-g]quinazolin-7-one]
potentiation of activity of combination agents leading to inhibition of colony forming activity [1]: significant potentiation

Cc1nc(NC(C)c2cccc(C(F)(F)C(C)(C)O)c2)c2cc3c(cc2n1)C(C)(C)C(=O)N3C (single isomer, unassigned) [Compound 2, (R/S)-4-((1-(3-(1,1-difluoro-2-hydroxy-2-methylpropyl)phenyl)ethyl)amino)-2,6,8,8-tetramethyl-6,8-dihydro-7H-pyrrolo[2,3-g]quinazolin-7-one]
potentiation of activity of combination agents leading to inhibition of colony forming activity [1]: significant potentiation

CO[C@]1(C)C(=O)N(C)c2cc3nc(C)nc(N[C@H](C)c4cccc(C(F)(F)C(C)(C)O)c4F)c3cc21 (racemic) [Compound 6a, (S/R)-4-(((R)-1-(3-(1,1-difluoro-2-hydroxy-2-methylpropyl)-2-fluorophenyl)ethyl)amino)-6-methoxy-2,6,8-trimethyl-6,8-dihydro-7H-pyrrolo[3,2-g]quinazolin-7-one]
potentiation of activity of combination agents leading to inhibition of colony forming activity [1]: significant potentiation

CO[C@]1(C)C(=O)N(C)c2cc3c(N[C@H](C)c4cc(N)cc(C(F)(F)F)c4)nc(C)nc3cc21 [Compound 7, (S)-4-(((R)-1-(3-amino-5-(trifluoromethyl)phenyl)ethyl)amino)-8-methoxy-2,6,8-trimethyl-6,8-dihydro-7H-pyrrolo[2,3-g]quinazolin-7-one]
inhibition in tumor growth [2]: 39.82% | inhibition in tumor growth ([5]; Compound 7 5 mg/kg q.d.): 30.40% | inhibition in tumor growth ([5]; Compound 7 10 mg/kg q.d.): 43.42% | inhibition in tumor growth ([5]; Compound 7 20 mg/kg q.d.): 52.71% | inhibition in tumor growth [6]: 32.86% | potentiation of activity of combination agents leading to inhibition of colony forming activity [1]: significant potentiation

COC1(C)C(=O)N(C)c2cc3nc(C)nc(N[C@H](C)c4cccc(C(F)(F)C(C)(C)O)c4F)c3cc21 (single isomer, unassigned) [Compound 6b]
potentiation of activity of combination agents leading to inhibition of colony forming activity [1]: significant potentiation

Cc1nc(N[C@H](C)c2cccc(C(F)(F)C(C)(C)O)c2F)c2cc3c(cc2n1)C(C)(C)C(=O)N3C [Compound 1, (R)-4-((1-(3-(1,1-Difluoro-2-hydroxy-2-methylpropyl)-2-fluorophenyl)ethyl)amino)-2,6,8,8-tetramethyl-6,8-dihydro-7H-pyrrolo[2,3-g]quinazolin-7-one]
tumor growth inhibition [4]: 63.82±8.32% | potentiation of activity of combination agents leading to inhibition of colony forming activity [1]: significant potentiation

Cc1nc(N[C@H](C)c2cccc(C(F)(F)[C@@](C)(O)CO)c2F)c2cc3c(cc2n1)C(C)(C)C(=O)N3C (single isomer, unassigned) [Compound 3b]
potentiation of activity of combination agents leading to inhibition of colony forming activity [1]: significant potentiation

C=CC(=O)N1CCN(c2nc(=O)n(-c3c(C)ccnc3C(C)C)c3nc(-c4c(O)cccc4F)c(F)cc23)[C@@H](C)C1 [AMG 510, 4-((S)-4-acryloyl-2-methylpiperazin-1-yl)-6-fluoro-7-(2-fluoro-6-hydroxyphenyl)-1-(2-isopropyl-4-methylpyridin-3-yl)pyrido[2,3-d]pyrimidin-2(1H)-one, reference compound]
inhibition in tumor growth ([5]; AMG 510 3 mg/kg q.d.): 77.69% | tumor regression ([4]; AMG 510 10 mg/kg q.d.): 39.43±15.22%
